According to patent publication US20060154335A1, “Novel members of the steroid/thyroid superfamily and uses therefor” (The Salk Institute for Biological Studies, priority 1994, published 2006):
Entries after “also recorded” stand apart in the source; their conditions may differ.

Columns and labels:
PPARα [1] = assay: cell_activity; settings: 5 uM Wy 14,643, CV-1 cells, luciferase reporter
PPARγ = molecular target: T1, PPARγ (Mus musculus, UniProt P37238, N383S); assay: Cotransfection assay in CV-1 cells, PPRE3-TK-LUC reporter, CMX-PPARγ; type: cell-based; settings: 5 μM Wy 14,643, 30 μM linoleic acid, 30 μM LY-171883
T1 construct: The first clone encodes a 475-amino acid protein; expressed in transfected cells; host or cells: CV-1 cells
T1 sequence (P37238 31-505 N383S): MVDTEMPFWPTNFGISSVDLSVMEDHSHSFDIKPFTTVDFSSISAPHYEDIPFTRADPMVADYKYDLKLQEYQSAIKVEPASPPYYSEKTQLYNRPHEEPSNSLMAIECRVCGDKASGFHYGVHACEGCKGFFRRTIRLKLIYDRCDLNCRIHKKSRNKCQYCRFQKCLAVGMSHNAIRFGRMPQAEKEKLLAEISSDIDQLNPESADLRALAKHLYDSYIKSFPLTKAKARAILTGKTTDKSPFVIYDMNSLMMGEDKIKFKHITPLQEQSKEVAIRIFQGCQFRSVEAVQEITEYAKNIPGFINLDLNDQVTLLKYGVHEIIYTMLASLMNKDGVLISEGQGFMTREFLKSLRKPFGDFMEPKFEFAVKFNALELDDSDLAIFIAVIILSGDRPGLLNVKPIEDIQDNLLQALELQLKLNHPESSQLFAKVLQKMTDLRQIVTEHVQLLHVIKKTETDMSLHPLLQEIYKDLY
Excerpt: (§1) Luciferase activities are presented as the fold activation achieved in compound-treated versus mock-treated cells. Similar results were obtained in triplicate in three independent experiments.
(§2) The mammalian expression vectors pCMX-PPARα, pCMX-PPARγ and pCMX-PPARδ were constructed by inserting the cDNA inserts of PPARα, PPARγ, and PPARδ into pCMX as previously described by Umesono et al., in Cell 65:1255-1266 (1991)). Construction of the reporter PPRE3-TK-LUC has also been previously described by Kliewer et al., (1992) supra. Cotransfection assays in CV-1 cells were done in 48 well plates using N-[1-(2,3-dioleoyloxy)-propyl [N,N,N-trimethyl ammonium methyl sulfate (DOTAP) according to the manufacturer's instructions (Boehringer Mannheim). Transfections contained 10 ng of receptor expression plasmid vector, 20 ng of the reporter PPRE3-TK-LUC, 60 ng of pCMX-βGAL (β-galactosidase) as an internal control, and 210 ng of carrier plasmid pGEM. Cells were incubated in the presence of DOTAP for 8 hours, washed, and incubated in the presence of peroxisome proliferators or fatty acids for 36 hours. Cell extracts were prepared and assayed for luciferase and β-galactosidase activity as previously described (Umesono, supra). All experimental points were done in triplicate.

PPARα [2] = molecular target: T2, PPARα (Mus musculus, UniProt P23204); assay: Cotransfection assay in CV-1 cells, PPRE3-TK-LUC reporter, CMX-PPARα; type: cell-based; settings: 5 μM Wy 14,643, 30 μM linoleic acid, 30 μM LY-171883
T2 construct: constructed by inserting the cDNA inserts of PPARα, PPARγ, and PPARδ into pCMX; expressed in transfected cells; host or cells: CV-1 cells
T2 sequence (P23204 1-468): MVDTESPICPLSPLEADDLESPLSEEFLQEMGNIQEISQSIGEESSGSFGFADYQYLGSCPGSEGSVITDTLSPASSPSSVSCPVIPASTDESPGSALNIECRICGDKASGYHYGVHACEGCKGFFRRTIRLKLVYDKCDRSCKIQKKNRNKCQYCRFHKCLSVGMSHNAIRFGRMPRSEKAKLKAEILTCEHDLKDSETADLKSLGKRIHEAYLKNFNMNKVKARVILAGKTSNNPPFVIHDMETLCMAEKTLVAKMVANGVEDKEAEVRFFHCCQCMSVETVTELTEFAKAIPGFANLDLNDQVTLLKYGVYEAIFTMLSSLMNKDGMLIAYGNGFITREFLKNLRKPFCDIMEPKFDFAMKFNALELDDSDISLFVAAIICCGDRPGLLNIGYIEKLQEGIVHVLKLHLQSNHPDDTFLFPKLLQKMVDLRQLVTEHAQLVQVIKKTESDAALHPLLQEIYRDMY
Excerpt: as §1, §2

PPARδ = molecular target: T3, PPARδ (Mus musculus, UniProt P35396, A150G/E149D); assay: Cotransfection assay in CV-1 cells, PPRE3-TK-LUC reporter, CMX-PPARδ; type: cell-based; settings: 5 μM Wy 14,643, 30 μM linoleic acid, 30 μM LY-171883
T3 construct: The second clone encodes a 440-amino acid protein; expressed in transfected cells; host or cells: CV-1 cells
T3 sequence (P35396 1-440 E149D/A150G): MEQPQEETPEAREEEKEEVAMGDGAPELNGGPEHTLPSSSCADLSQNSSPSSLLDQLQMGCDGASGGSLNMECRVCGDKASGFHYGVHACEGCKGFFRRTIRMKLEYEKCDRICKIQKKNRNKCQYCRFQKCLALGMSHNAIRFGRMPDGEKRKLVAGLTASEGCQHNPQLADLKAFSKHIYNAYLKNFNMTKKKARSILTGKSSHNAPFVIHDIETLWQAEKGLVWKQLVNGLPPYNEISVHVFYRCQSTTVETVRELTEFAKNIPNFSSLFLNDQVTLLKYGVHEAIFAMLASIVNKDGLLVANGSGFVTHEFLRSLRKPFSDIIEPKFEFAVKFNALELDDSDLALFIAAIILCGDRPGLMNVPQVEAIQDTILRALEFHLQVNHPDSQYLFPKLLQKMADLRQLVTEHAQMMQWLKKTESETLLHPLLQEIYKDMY
Excerpt: as §2

Row | activation of PPARα (reporter expression) (PPARα [2]) | Compound | activity (fold activation) (PPARα [1]) | activation of PPARγ (reporter expression) (PPARγ) | activation of PPARδ (reporter expression) (PPARδ)
1 |  | PPRE3-TK-LUC (three copies of AOX-PPRE) | > 100 |  | 
2 | strong activators | CCCCC/C=C\C/C=C\CCCCCCCC(=O)O [linoleic acid] |  | no activation | activated; also recorded: most efficiently activated
3 | strong activators | CCCc1c(OCCCCc2nnn[nH]2)ccc(C(C)=O)c1O [LY-171883] |  | significant activation; also recorded: most efficiently activated | not activated

Row | Compound | activation of PPARα (reporter expression) (PPARα [2]) | activity (fold activation) (PPARα [1]) | activation of PPARγ (reporter expression) (PPARγ) | activation of PPARδ (reporter expression) (PPARδ)
4 | Cc1cccc(Nc2cc(Cl)nc(SCC(=O)O)n2)c1C [Wy 14,643] | most efficiently activated |  | no activation; also recorded: fail to respond; also recorded: fails to activate | 
